According to the supplement of paper PMC5908809:

Experiments:
[1] = system: normal NK cells expanded with K562-aAPC; assay: percent inhibition of viability; higher = more inhibition; conditions: 72 h, IL-2 2.5 ng/mL
Description: (§1)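 Drug sensitivity and resistance testing on K562-aAPC-expanded normal NK cells: 5 concentrations (10-fold steps over a 10,000-fold range), 72 h at 37 °C, viability by CellTiter-Glo normalised to DMSO and benzethonium chloride controls; DSS from the fitted curve.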

DERL-7 (IL-2 2.5 ng/mL) [2] = assay: as above; conditions: 72 h
IMC-1 (IL-2 20 ng/mL) [3] = assay: as above; conditions: 72 h
KAI3 (IL-2 2.5 ng/mL) [4] = assay: as above; conditions: 72 h
KHYG-1 (IL-2 2.5 ng/mL) [5] = assay: as above; conditions: 72 h
NK-92 (IL-2 2.5 ng/mL) [6] = assay: as above; conditions: 72 h
NK-YS (IL-2 2.5 ng/mL) [7] = assay: as above; conditions: 72 h
NKL (IL-2 2.5 ng/mL) [8] = assay: as above; conditions: 72 h
SNK-6 (IL-2 2.5 ng/mL) [9] = assay: as above; conditions: 72 h
YT (IL-2 2.5 ng/mL) [10] = assay: as above; conditions: 72 h
[11] = system: normal primary NK cells, pool 1 (3 donors) (IL-2 2.5 ng/mL); assay: as above; conditions: 72 h
[12] = system: normal primary NK cells, pool 1 (3 donors), resting (IL-2 0 ng/mL); assay: as above; conditions: 72 h
[13] = system: normal primary NK cells, pool 2 (3 donors) (IL-2 2.5 ng/mL); assay: as above; conditions: 72 h
[14] = system: normal primary NK cells, pool 3 (3 donors) (IL-2 2.5 ng/mL); assay: as above; conditions: 72 h
[15] = system: normal NK cells expanded with K562-aAPC; assay: drug sensitivity score (DSS) (DSS units); higher = more sensitive; extreme values may be limits of the assay; conditions: 72 h; IL-2 2.5 ng/mL
Description: as §1

DERL-7 (IL-2 2.5 ng/mL) [16] = assay: as above; conditions: 72 h
IMC-1 (IL-2 20 ng/mL) [17] = assay: as above; conditions: 72 h
KAI3 (IL-2 2.5 ng/mL) [18] = assay: as above; conditions: 72 h
KHYG-1 (IL-2 2.5 ng/mL) [19] = assay: as above; conditions: 72 h
NK-92 (IL-2 2.5 ng/mL) [20] = assay: as above; conditions: 72 h
NK-YS (IL-2 2.5 ng/mL) [21] = assay: as above; conditions: 72 h
NKL (IL-2 2.5 ng/mL) [22] = assay: as above; conditions: 72 h
SNK-6 (IL-2 2.5 ng/mL) [23] = assay: as above; conditions: 72 h
YT (IL-2 2.5 ng/mL) [24] = assay: as above; conditions: 72 h
[25] = system: normal primary NK cells, pool 1 (3 donors) (IL-2 2.5 ng/mL); assay: as above; conditions: 72 h
[26] = system: normal primary NK cells, pool 1 (3 donors), resting (IL-2 0 ng/mL); assay: as above; conditions: 72 h
[27] = system: normal primary NK cells, pool 2 (3 donors) (IL-2 2.5 ng/mL); assay: as above; conditions: 72 h
[28] = system: normal primary NK cells, pool 3 (3 donors) (IL-2 2.5 ng/mL); assay: as above; conditions: 72 h

COC(=O)C[C@](O)(CCCC(C)(C)O)C(=O)O[C@@H]1C(OC)=C[C@]23CCCN2CCc2cc4c(cc2[C@H]13)OCO4 [Omacetaxine] (max concentration tested 10000 nM)
percent inhibition of viability [%]
Conditions	1 nM	10 nM	100 nM	1000 nM	10000 nM
DERL-7 (IL-2 2.5 ng/mL) [2]	5.07	60.5	100	101	101
IMC-1 (IL-2 20 ng/mL) [3]	-8.96	-3.07	99.7	101	101
KAI3 (IL-2 2.5 ng/mL) [4]	29.6	46.7	101	105	106
KHYG-1 (IL-2 2.5 ng/mL) [5]	-7.86	-9.89	102	106	107
NK-92 (IL-2 2.5 ng/mL) [6]	1.68	7.27	100	106	108
NK-YS (IL-2 2.5 ng/mL) [7]	1.36	1.43	100	105	108
NKL (IL-2 2.5 ng/mL) [8]	3.97	2.74	99.8	107	108
SNK-6 (IL-2 2.5 ng/mL) [9]	0.3	72.3	95.2	95.4	99.9
YT (IL-2 2.5 ng/mL) [10]	-7.92	19.8	98.2	107	108
[1]	3.7	16	93.1	101	101
[11]	1.78	69	96.7	96.5	99
[12]	39.6	89.8	90.3	89.8	91.4
[13]	4.96	73.8	93.2	93.8	95.3
[14]	9.72	46.5	96.3	97.1	99.5

Conditions	drug sensitivity score
DERL-7 (IL-2 2.5 ng/mL) [16]	37.8
IMC-1 (IL-2 20 ng/mL) [17]	30.1
KAI3 (IL-2 2.5 ng/mL) [18]	37.1
KHYG-1 (IL-2 2.5 ng/mL) [19]	29.9
NK-92 (IL-2 2.5 ng/mL) [20]	31.6
NK-YS (IL-2 2.5 ng/mL) [21]	30.6
NKL (IL-2 2.5 ng/mL) [22]	30.8
SNK-6 (IL-2 2.5 ng/mL) [23]	38.8
YT (IL-2 2.5 ng/mL) [24]	33.7
[15]	31.6
[25]	38.4
[26]	43.6
[27]	38.4
[28]	35.4

Cc1cc(C(=O)NOCCO)c(Nc2ccc(I)cc2F)n(C)c1=O [AZD-8330] (max concentration tested 10000 nM)
percent inhibition of viability [%]
Conditions	1 nM	10 nM	100 nM	1000 nM	10000 nM
DERL-7 (IL-2 2.5 ng/mL) [2]	10.5	19.5	39.8	44.6	49.1
IMC-1 (IL-2 20 ng/mL) [3]	-6.12	-4.24	-7.8	-3.57	1.54
KAI3 (IL-2 2.5 ng/mL) [4]	6.6	16.3	20.9	25.5	21.5
KHYG-1 (IL-2 2.5 ng/mL) [5]	4.36	28.4	50.2	60.9	59.9
NK-92 (IL-2 2.5 ng/mL) [6]	-20.4	-31.8	-23.9	-11.1	-34
NK-YS (IL-2 2.5 ng/mL) [7]	1.92	6.63	7.16	17	13.5
NKL (IL-2 2.5 ng/mL) [8]	9.59	36	58.2	70.4	65
SNK-6 (IL-2 2.5 ng/mL) [9]	-15.8	-23.2	-25.2	-18.2	-8.48
YT (IL-2 2.5 ng/mL) [10]	1.8	1.88	-1.55	5.74	3.13
[1]	0.89	-5.14	2.35	1.49	5.67
[11]	1.16	3.34	2.94	11.4	20.3
[12]	-12.3	-10.7	-6.76	10.4	33.8
[13]	-6.21	-3.9	6.25	1.91	6.61
[14]	-7.05	-12	-3.49	3.69	8.96

Conditions	drug sensitivity score
DERL-7 (IL-2 2.5 ng/mL) [16]	15.5
IMC-1 (IL-2 20 ng/mL) [17]	0
KAI3 (IL-2 2.5 ng/mL) [18]	0
KHYG-1 (IL-2 2.5 ng/mL) [19]	20.8
NK-92 (IL-2 2.5 ng/mL) [20]	0
NK-YS (IL-2 2.5 ng/mL) [21]	1.5
NKL (IL-2 2.5 ng/mL) [22]	24.7
SNK-6 (IL-2 2.5 ng/mL) [23]	0
YT (IL-2 2.5 ng/mL) [24]	0
[15]	0
[25]	1.33
[26]	3.07
[27]	0
[28]	0

O=C(/C=C\n1cnc(-c2cc(C(F)(F)F)cc(C(F)(F)F)c2)n1)NNc1cnccn1 [Selinexor] (max concentration tested 10000 nM)
percent inhibition of viability [%]
Conditions	1 nM	10 nM	100 nM	1000 nM	10000 nM
DERL-7 (IL-2 2.5 ng/mL) [2]	-2.69	16.9	59.3	89.7	99.2
IMC-1 (IL-2 20 ng/mL) [3]	-4.46	1.62	-10.9	86.9	100
KAI3 (IL-2 2.5 ng/mL) [4]	-3.28	4.63	52.6	93.7	106
KHYG-1 (IL-2 2.5 ng/mL) [5]	0.08	3.04	35.7	93.3	102
NK-92 (IL-2 2.5 ng/mL) [6]	-2.59	-2.77	33.9	90.6	101
NK-YS (IL-2 2.5 ng/mL) [7]	-3.45	3.74	39	77.4	95.4
NKL (IL-2 2.5 ng/mL) [8]	-4.23	11	42.8	76.3	87.8
SNK-6 (IL-2 2.5 ng/mL) [9]	-0.01	17.6	63.9	81.6	93.4
YT (IL-2 2.5 ng/mL) [10]	3.93	13.2	61.2	91.8	104
[1]	4.95	27.1	55.3	96.5	101
[11]	3.58	9.52	57.5	87.9	98.6
[12]	-3.27	25.6	77.9	87.5	93.1
[13]	-5.72	14.1	65.8	89.2	97.1
[14]	-6.17	1.79	59.1	88.1	99.8

Conditions	drug sensitivity score
DERL-7 (IL-2 2.5 ng/mL) [16]	25
IMC-1 (IL-2 20 ng/mL) [17]	15.5
KAI3 (IL-2 2.5 ng/mL) [18]	23.9
KHYG-1 (IL-2 2.5 ng/mL) [19]	21.3
NK-92 (IL-2 2.5 ng/mL) [20]	20.8
NK-YS (IL-2 2.5 ng/mL) [21]	19.4
NKL (IL-2 2.5 ng/mL) [22]	19.9
SNK-6 (IL-2 2.5 ng/mL) [23]	25.1
YT (IL-2 2.5 ng/mL) [24]	25.4
[15]	25.9
[25]	24.1
[26]	29
[27]	26
[28]	24.6
